Source: publication PMC9698716, “From Serendipity to Rational Identification of the 5,6,7,8-Tetrahydrobenzo[4,5]thieno[2,3-d]pyrimidin-4(3H)-one Core as a New Chemotype of AKT1 Inhibitors for Acute Myeloid Leukemia” (Pharmaceutics, 2022)

Key:
[1] = biological target: T1, AKT1 (Homo sapiens, UniProt P31749); test: AKT1 enzymatic inhibition assay; assay type: biochemical
T1 construct: purchased Kinase Logistics, Meyn, Germany #Aps 01-101
Description: The studied compounds, including the standard inhibitor Staurosporine (Thermo-Fisher , Madrid, Spain, Invitrogen BP2541), were incubated with 3 nM AKT1 (#Aps 01-101; Kinase Logistics, Meyn, Germany) and 1.5 μM Profiler Pro peptide 6 (#760350; Perkin Elmer, Tres Cantos, Madrid, Spain) in the presence of different concentrations of Adenosine 5′triphosphate disodium salt, ATP (#A2383; Sigma Aldrich, Madrid, Spain) in a 384-well Microplate (#781076; Greiner, San Sebastián de los Reyes, Madrid, Spain). The reaction rate was calculated from kinetic measurements carried out measured in a Caliper EzReader LabChip 3000 (Caliper, Hopkinton, MA, USA) reader with samples taken each 10 min for a total time of 60 min. The percentage of substrate conversion rate was plotted versus the ATP concentration. The data was analyzed by non-linear fitting with GraphPad Prism by employing the Michaelis–Menten equation. The buffer assay used in the inhibition hAKT1 assay is: Hepes 100 mM, DMSO 4%, Brij 0.003%, Tween 20 0.004%, MgCl2 10 mM, with a pH = 7.5.
The Ki values were calculated by employing the GraphPad Prism equations.

[2] = test system: OCI-AML3; test: Cell growth, viable cell count by trypan blue exclusion; assay type: cell-based, human; details: OCI-AML3, 5 µM, at 48 and 72 h
[3] = test system: OCI-AML2; test: as above; assay type: cell-based, human; details: OCI-AML2, 5 µM, at 48 and 72 h
[4] = test system: E4-BP1 phosphorylation at site S65; test: Western blot of AKT signaling pathway in AML cell lines; assay type: cell-based, human; details: increasing concentrations (0.5 and 5 µM), 24 and 48 h, OCI-AML3, IMS-M2, OCI-AML2
Description: (§1) Immunoblotting was conducted as described previously. Briefly, fresh cell pellets (0.2–0.5 × 10^6/test for AML cell lines) were dissolved directly in 30–60 μL of Laemmli sample buffer 1× (1.5 M Tris-HCl pH 6.8, glycerol, β-mercaptoethanol, SDS, bromophenol blue) and boiled at 95 °C for 5 min. The proteins were separated by SDS-polyacrylamide gel electrophoresis (SDS-PAGE) on Precast 4–15% gradient gels (Biorad, Hercules, CA, USA) transferred onto nitrocellulose membranes (GE Healthcare, Piscataway, NJ, USA) and probed with specific primary antibodies followed by horseradish peroxidase-conjugated secondary antibodies (GE Healthcare Lifesciences). The polypeptides were visualized using enhanced chemiluminescence (Luminata Crescendo, Merck Millipore, Burlington, MA, USA) according to the manufacturer’s instructions. The bands were visualized using the Biorad Chemidoc and the images were processed using the image lab software (Biorad) and Adobe Photoshop (Ps CC 2019). β-actin expression levels were used as a control for protein loading, as indicated.
(§2) The primary antibodies used for western blot analyses are the following: mouse monoclonal anti-human β-actin (Clone AC-15; dilution 1:5000) from Sigma Aldrich (St. Louis, MO, USA); rabbit monoclonal anti-human Cleaved poly (ADP-ribose) polymerase (c-PARP) (Clone Asp 214; dilution 1:1000); rabbit monoclonal phospho-Akt (Ser473) (clone D9E, dilution 1.500); rabbit polyclonal phospho-mTOR (Ser2448) (dilution 1:500); rabbit polyclonal phospho-4E-BP1 (Ser65) (dilution 1:500); rabbit monoclonal Akt1 (clone D9R8K, dilution 1:500); rabbit polyclonal 4E-BP1 (dilution 1:500); and rabbit polyclonal mTOR (dilution 1:500), all from Cell Signaling (Cell Signaling Technology, Inc., Danvers, MA, USA).

[5] = test system: phospho-AKT, at site S473; test: as above; assay type: cell-based, human
Description: as §1, §2

[6] = test system: phospho-mTOR, at site S2448; test: as above; assay type: cell-based, human; details: increasing concentrations (0.5 and 5 µM), 24 and 48 h, OCI-AML3, IMS-M2, OCI-AML2
Description: as §1, §2

[7] = test system: cleaved-PARP; test: Western blot of apoptosis marker in AML cell lines; assay type: cell-based, human; details: 5 µM, 48 h
Description: as §1, with “indicated. […]” for “indicated.”

[8] = Intrinsic fluorescence assay; assay type: physicochemical; details: excitation/emission 485–535 nm, AKT1 assay buffer, 2 h 37 °C
Description: Compound T126 was serially diluted in 384-well black plates with Hepes 100 mM, DMSO 4%, Brij 0.003%, Tween 20 0.004%, MgCl2 10 mM, at a pH = 7.5 and incubated for 2 h at 37 °C. After the incubation time the intensity of fluorescence (λexc: 485 nm; λemm: 535 nm) was detected in a Tecan M1000 Pro.

[9] = Solubility screen assay to determine chemical aggregation (nephelometry); assay type: physicochemical; details: AKT1 assay buffer pH 7.5, 37 °C, 2 h, NEPHELOstar Plus
Description: The stock solutions (10–2 M) of the compound T126 were diluted to a decreased molarity, from 100 µM to 0.0001 µM, in 384-well transparent plates (Greiner 781801) with 1% DMSO: 99% buffer Hepes 100 mM, DMSO 4%, Brij 0.003%, Tween 20 0.004%, MgCl2 10 mM, at a pH = 7.5. Incubation occurred at 37 °C and the results were read after 2 h in a NEPHELOstar Plus (BMG LABTECH, Ortenberg, Germany). The results were adjusted to a segmented regression to obtain the maximum concentration in which the compounds were soluble.

[10] = UV-VIS titration assay with increasing MgCl2; assay type: physicochemical; details: 100 µM compound, up to 10 mM MgCl2
Description: The potential ability of T126 to chelate Mg^2+ ions was evaluated by spectrophotometric methods using a T70+ UV-Vis Spectrometer (PG Instruments, Leicestershire, UK) and a quartz cuvette with a 1 cm optical path. MgCl2. 5H2O 1M solution was prepared from powder (VWR International, Milan, Italy). The compound T126 was dissolved in DMSO to a final concentration of 10 mM and diluted with a milliQ water/DMSO mixture to a final concentration of 100 µM (4% DMSO). The obtained solution was placed in a cuvette and the UV-Vis spectra was recorded between 200 and 500 nm using water milliQ (with 4% DMSO) as reference. Thereafter, small volumes of MgCl2 aqueous solution were added both in the sample and in the reference cuvettes to obtain a series of solutions containing increasing concentrations of MgCl2 (1.25, 2.5, 5 and 10 mM), carefully pipetted for mixing, and the UV-Vis spectra were repeated. Each experiment was performed in triplicate.

T1 sequence (P31749 whole entry): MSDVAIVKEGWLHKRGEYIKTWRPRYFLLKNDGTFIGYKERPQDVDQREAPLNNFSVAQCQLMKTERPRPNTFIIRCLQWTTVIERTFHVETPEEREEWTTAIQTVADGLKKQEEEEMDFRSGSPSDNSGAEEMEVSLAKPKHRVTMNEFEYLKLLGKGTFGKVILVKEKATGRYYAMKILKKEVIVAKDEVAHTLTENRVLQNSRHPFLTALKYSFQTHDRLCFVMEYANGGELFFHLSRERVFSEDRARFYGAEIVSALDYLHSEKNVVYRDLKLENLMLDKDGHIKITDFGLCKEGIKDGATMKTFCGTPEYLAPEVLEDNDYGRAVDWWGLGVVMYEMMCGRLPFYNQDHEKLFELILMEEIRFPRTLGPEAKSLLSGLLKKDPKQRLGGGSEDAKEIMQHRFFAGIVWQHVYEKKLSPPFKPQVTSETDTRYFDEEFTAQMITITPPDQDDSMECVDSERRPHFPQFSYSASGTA

IC50 [1]: 1990 ± 110 nM
inhibition at 10 µM ([1]; 10 μM compound, read-out: %inh (percentage of inhibition of AKT1 activity)): 87%
Ki ([1]; read-out: Ki (AKT1 inhibition constant)): 410 nM
intrinsic fluorescence [8]: not fluorescent
concentration up to which no aggregation occurs [9]: ≥ 100 µM
ability to chelate Mg^2+ ions [10]: inability of T126 to chelate Mg^2+ ions
Structure (SMILES): O=c1[nH]c(-c2ccc(O)c(O)c2)nc2sc3c(c12)CCCC3 [T126]
cell growth inhibition [2]: significant cell growth inhibition
cell growth inhibition [3]: significant cell growth inhibition
phosphorylation of 4E-BP1 (S65) [4]: reduction of its phosphorylation levels
inhibition of p-AKT ([5]; OCI-AML3, 4 h, 1 and 2.5 µM): inhibition of p-AKT was already observed
phosphorylation of AKT1 (S473) ([5]; increasing concentrations (0.5 and 5 µM), 24 and 48 h, OCI-AML3, IMS-M2, OCI-AML2): decreased phosphorylation
phosphorylation of mTOR (S2448) [6]: decreased phosphorylation
cleaved-PARP (marker of apoptosis) [7]: detected
